Measured values published in patent US20130237582A1, “PHARMACEUTICAL COMBINATION OF PACLITAXEL AND A CDK INHIBITOR” (Piramal Enterprises Limited, priority 2010, published 2013).

Columns and labels:
[1] = tested on: MDA-MB-468; assay: Cell cycle progression and apoptosis by flow cytometry (sub-G1); assay type: cell-based, human; details: 50 μM
Procedure: Before analysis, cells were washed twice with PBS to remove the fixative and re-suspended in PBS containing 50 μg/mL propidium iodide and 50 μg/mL RNaseA. After incubation at room temperature (20-35° C.) for 20 min, cells were analyzed using flow cytometry. A Becton Dickinson FACS Calibur flow cytometer (BD, USA) was used for these studies. The argon ion laser set at 488 nm was used as an excitation source. Cells with DNA content between 2n and 4n were designated as being in G1, S and G2/M phases of the cell cycle, as defined by the level of red fluorescence. […] The number of cells in each cell cycle compartment was expressed as a percentage of the total number of cells present. The results are shown in Table 3 and graphically presented in FIG. 3A (MCF-7 cell lines) and FIG. 3B (MDA-MB-231 cell lines).
Comparison of the effect of Compound A and PARP inhibitor BSI-201 (Iniparib developed by Sanofi-Aventis. BSI-201 is prepared in-house) on cell cycle progression and apoptosis was evaluated in two TNBC cell lines. The asynchronous human TNBC cell lines MDA-MB-231 and MDA-MB-468 were seeded in […] tissue culture flask at a density of 0.5×10^6 cells per flask in RPMI 1460 with 10% FCS. After 24 h, cells were treated either with 1.5 and 3.0 μM of Compound A or 50 μM of PARP inhibitor BSI-201 for 72 h. After the incubation cells were harvested (trypsinised) and processed as given in example 6.

[2] = tested on: VEGF; assay: VEGF reporter gene based assay (M-9 cells); assay type: cell-based; details: Homo sapiens, hypoxia, 20-24 h, read-out: IC50 for VEGF inhibition under hypoxia
Procedure: A cell line M-9 is MDA-MB-231 which is stably co-transfected with the VEGF-Luc construct (VEGF promoter in pGL2-basic) and a plasmid containing the Geneticin (G418) resistance gene which forms VEGF promoter reporter gene. The expression of the reporter gene in the clone cells, as measured by luciferase activity, is stable.
The effect of Compound A on VEGF inhibition was evaluated using the VEGF reporter gene based assay.
Lysis Assay Buffer (1×) • Tris-Phosphate (pH 7.8)-125 mM, DTT-10 mM, EDTA-10 mM, Glycerol-50% and Triton X-100-5%.
Luciferase Assay Reagent (LAR) • Luciferase Assay Buffer-8 mL, 530 μM ATP-530 μL, 270 μM CoA-1 mL and 170 μM Luciferin-1 mL.
Luciferase Assay Buffer (LAB) (1×) • Tricin (pH 7.8)-20 mM, Magnesia Alba-1.07 mM, MgSO4-2.67 mM, EDTA-0.1 mM and DTT-33.3 mM. ATP Stock made in LAB=5.85 mg/mL CoA Stock made in LAB=2.1 mg/mL Luciferin Stock made in LAB=1.5 mg/mL
1. M-9 cells were sub-cultured and maintained in RPMI-1640 Medium with supplement of 10% FBS, and 4 μL/ml G418 (Stock 100 mg/mL) in a humidified incubator at 37° C. and 5% CO2. 2. Cells were seeded at density of 3×10^4 cells/well in 180 μL volume in tissue culture grade 96 well white plates as well as transparent plates and allowed to adhere for 16-20 h in humidified CO2 incubator (5% CO2) at 37° C. A total of two sets of plates were made, as the incubation conditions are different. 3. Compound A, Sutent® and BSI-201 were diluted in medium serially so that final desired concentrations are achieved in the respective wells. (not more than 0.5% concentration of DMSO in the wells). 4. INCUBATION CONDITIONS: One set of plates are incubated under ambient atmospheric condition with 5% CO2, referred hereafter as NORMOXIC/OXIC PLATE. […] To all the wells, 100 μL Luciferase Assay Reagent (LAR) are added, plates are immediately read for Luminescence on TOPCOUNT™ (Packard, USA). The percentage inhibitions and Inhibitory Concentration (IC50) or Effective Concentration (EC50) are calculated in comparison with Control (untreated) values. […]

[3] = tested on: MDA-MB-231; assay: Cytotoxicity assay using propidium iodide (PI); assay type: cell-based, human; details: Homo sapiens, 48 h treatment, PI assay
Procedure: (§1) The propidium iodide fluorescence assay (PI) was carried out according to the procedure mentioned in Anticancer Drugs, 1995, 6, 522-32. The assay was developed to characterize the in vitro growth of human tumor cell lines as well as to test the cytotoxic activity of the compounds. Propidium iodide (PI) was used as a dye, which penetrates only damaged cellular membranes. Intercalation complexes are formed by PI with double-stranded DNA, which effect an amplification of the fluorescence. After freezing the cells at −20° C. for 24 h, PI had access to total DNA leading to total cell population counts. Background readings were obtained from cell-free wells containing media and propidium iodide. The human breast cancer cell lines (i.e. […] Control wells were treated with vehicle (DMSO). At the end of the incubation periods, the plates were assayed using PI cytotoxicity assay protocol. Percent cytoxicity was calculated at various drug concentrations and from the graph plotted the IC50 values were determined.

[4] = tested on: MDA-MB-231; assay: Combination in vitro cytotoxicity (PI) assay; assay type: cell-based; details: Homo sapiens, then CM 72 h, read-out: % inhibition of Group IA
Procedure: The propidium iodide fluorescence assay (PI) was carried out according to the procedure mentioned in Anticancer Drugs, 1995, 6, 522-32.
The assay was developed to characterize the in vitro growth of human tumor cell lines as well as to test the cytotoxic activity of the test compounds. Propidium iodide (PI) was used as a dye, which penetrates only, damaged cellular membranes. Intercalation complexes are formed by PI with double-stranded DNA, which effect an amplification of the fluorescence. After freezing the cells at −20° C. for 24 h, PI had access to total DNA leading to total cell population counts. Background readings were obtained from cell-free wells containing media and propidium iodide.
The human triple negative breast cancer cell line, MDA-MB-231 was seeded at a density of 1500-3000 cells/well in 180 μL of RPMI-1640 medium in a 96-well plate and incubated for about 16 h in humidified 5% CO2 incubator at 37±1° C. to allow the cells to adhere. The schedule consists of six treatment groups. In every treatment group, 20 μL of 10× compound (dissolved first in DMSO and then diluted in cell medium, final DMSO concentration not exceeding 0.5%) was used in the wells and the plate was incubated in humidified 5% CO2 incubator at 37±1° C. The medium was removed from the wells and washed with PBS. 100 μL of PI working solution (7 μg/mL) per well was added and the plates were stored at −80° C. for about 16 h. The plates were thawed and the fluorescence was measured using the POLARstar optima plate reader (USA) at excitation 536 nm and emission 590 nm.
(PI stock solution of 1 mg/mL was prepared by dissolving 1 mg PI in 1 mL of distilled water. PI working solution was prepared by adding 140 μL of stock solution to PBS to make up the volume to […] (7 μg/mL)).
The synergistic effects in TNBC MDA-MB-231 cell line have been evaluated using the CompuSyn software by Chou and Talalay, described in Pharmacological Reviews, 2006, 58, 621-681. Combination index (CI) is used to evaluate if a combination is additive, synergistic or antagonistic. CI<1 is synergistic, CI=1 is additive and CI>1 is antagonistic.

[5] = tested on: MDA-MB-468; assay: Cytotoxicity assay using propidium iodide (PI); assay type: cell-based, human; details: Homo sapiens, 48 h treatment, PI assay
Procedure: as §1

[6] = tested on: BT-549; assay: Cytotoxicity assay using propidium iodide (PI); assay type: cell-based; details: Homo sapiens, 48 h treatment
Procedure: as §1

| IC50 [2] [µM] | Compound | % apoptosis at 72 h [1] [%] | IC50 [3] [µM] | inhibition at 0.03 µM ([4]; paclitaxel 0.03 μM 24 h) [%] | inhibition at 0.1 µM ([4]; paclitaxel 0.1 μM 24 h) [%] | inhibition at 0.3 µM ([4]; paclitaxel 0.3 μM 24 h) [%] | inhibition at 1 µM ([4]; paclitaxel 1.0 μM 24 h) [%] | inhibition at 3 µM ([4]; paclitaxel 3.0 μM 24 h) [%] | IC50 [5] [µM] | IC50 [6] [µM] |
| --- | --- | --- | --- | --- | --- | --- | --- | --- | --- | --- |
| > 100 | NC(=O)c1ccc(I)c([N+](=O)[O-])c1 [BSI-201, reference compound] | 12.67 |  |  |  |  |  |  |  |  |
|  | CC(=O)O[C@H]1C(=O)[C@@]2(C)[C@H]([C@H](OC(=O)c3ccccc3)[C@]3(O)C[C@H](OC(=O)[C@H](O)[C@@H](NC(=O)c4ccccc4)c4ccccc4)C(C)=C1C3(C)C)[C@]1(OC(C)=O)CO[C@@H]1C[C@@H]2O [Paclitaxel] |  | 0.9 | -2.6 | 8.3 | 82.9 | 88.7 | 89.1 |  |  |
| 15 | CCN(CC)CCNC(=O)c1c(C)[nH]c(/C=C2\C(=O)Nc3ccc(F)cc32)c1C [Sunitinib, reference compound] |  | 7.8 |  |  |  |  |  | 10 | 18 |
